Data on two molecules can be found in patent US20180193350A1, “TREATMENT OF NUT MIDLINE CARCINOMA” (Tensha Therapeutics, Inc., priority 2015, published 2018).

Assay [1] deals with bromodomains of the BET family. The settings on record: Bres et al. 2008; cited from earlier work.
Assay [2] relates to CD11b on CD14+ monocytes. Briefly: CD11b expression levels on CD14+ monocytes in patients treated with TEN-010 (flow cytometry, MESF). Type of assay: in vivo, human. From the text:
Patients aged 18 years or older with histologically confirmed advanced solid tumors with progressive disease requiring therapy were enrolled in the study. In particular, patients with histologically confirmed advanced solid malignancy with progressive disease, NMC, or advanced aggressive diffuse large B cell lymphoma (DLBCL) were enrolled in the study. Patients with hemotologic malignancies were not enrolled in the study. TEN-010 was formulated as a sterile, preserved isotonic solution for subcutaneous (SC) administration. A dose of 0.45 mg/kg was administered on Days 1 through 21 (“ON segment”) of each cycle without interruption, followed by a 7-day dose-free interval (“OFF segment”) in a 28-day treatment cycle. Injections were rotated amongst several sites including bilateral upper arms and thighs and mid and lower abdomen and buttocks. Whole blood specimens were collected at specified time points (e.g., see FIG. 1) in sodium heparin vacutainers. Briefly, two 12×75 mm test tubes per donor were labeled with specimen ID and appropriate cocktail name (see Table 2 below). 100 μl of sodium heparin anticoagulated whole blood was pipetted into the test tubes. The appropriate titrated volume of antibody cocktails was pipetted into the correspondingly labeled tubes. The appropriate titrated amount of CD14 PerCP, was added to all tubes to identify CD14 positive monocytes. The tubes were vortexed and were allowed to incubate for 30 minutes at room temperature in the dark. The red blood cells were lysed by adding 4 ml of an ammonium chloride-based whole blood lysing reagent to each tube. The tubes were capped and inverted to mix well prior to incubating in the dark at room temperature for 5 minutes. After the incubation, the tubes were centrifuged at 400 RCF for 5 minutes, the supernatant decanted and the tubes rack-raked to disperse cell pellet. The cells were washed with 2 ml of PBS with 1% BSA and centrifuged. To detect biotin conjugated CD45 RO antibody, the appropriate titrated amount of SA-BV605 (streptavidin (SA) conjugated to brilliant violet (BV) 605) was added to each tube and tubes were vortexed. After a 20 minute incubation in the dark at room temperature, the cells were washed with 2 ml of PBS with 1% BSA and centrifuged. The supernatant was decanted and the cells were rack-raked to disperse the cell pellet. Each tube received 500 μl of 1% paraformaldehyde and stored at 2-8 C until acquisition on the day of preparation. The tubes were acquired on a Becton Dickinson (BD) FACSCanto™ II flow cytometer with appropriate instrument settings, acquiring approximately 250,000 total events per tube. All analyses for flow cytometry were performed on WinList 7.0 (Verity Software House, Topsham, Me.) with a direct data exchange link to Microsoft® Excel 2003 or equivalent. For FIG. 1, baseline value (pre-dose at cycle 1, day 1, i.e., C1D1) was set at an arbitrary MESF value (e.g., 100) for each patient; all subsequent values obtained from the study were normalized to the baseline value. For FIG. 2, unnormalized MESF values are shown.
Background: A flow cytometer gives signals particle by particle.

Assay [3] has as its system lactate dehydrogenase (LDH). In words: LDH levels in patients treated with TEN-010. Type of assay: in vivo, human. The settings on record: non-NMC patient 002-021 (FIG. 2B), despite significant rise in CD11b levels. From the text: Patients aged 18 years or older with histologically confirmed advanced solid tumors with progressive disease requiring therapy were enrolled in the study. In particular, patients with histologically confirmed advanced solid malignancy with progressive disease, NMC, or advanced aggressive diffuse large B cell lymphoma (DLBCL) were enrolled in the study. Patients with hemotologic malignancies were not enrolled in the study.
TEN-010 was formulated as a sterile, preserved isotonic solution for subcutaneous (SC) administration. A dose of 0.45 mg/kg was administered on Days 1 through 21 (“ON segment”) of each cycle without interruption, followed by a 7-day dose-free interval (“OFF segment”) in a 28-day treatment cycle. Injections were rotated amongst several sites including bilateral upper arms and thighs and mid and lower abdomen and buttocks.
LDH levels were measured using standard protocols, using a chemistry analyzer, e.g., Beckman Coulter. See, e.g., Lactate OSR6193 procedure published March 2012 (webcache.googleuserconent.com/search?q=cache:iyYi7vCetH4J:https://www.beckmancoulter.com/wsrportal/techdocs%3Fdocname%3D/cis/BAOSR6x93%2525%2525/EN_LACTATE_BAOSR6x93_US.doc+&cd=2&hl=en&ct=clnk&gl=us), incorporated by reference in its entirety.

Take `Cc1sc2c(c1C)C(c1ccc(Cl)cc1)=N[C@@H](CC(=O)OC(C)(C)C)c1nnc(C)n1-2` [JQ1]: the “binding to bromodomains of the BET family” value in assay [1] was “specifically binds”.

For the molecule `Cc1sc2c(c1C)C(c1ccc(Cl)cc1)=N[C@@H](CC(=O)NCCCN1CCN(C)CC1)c1nnc(C)n1-2` [TEN-010], in assay [2] (NMC patient 004-001), the “CD11b levels following the off-drug segment (C2D1)” value is on record as “dramatically increased”. The “effectiveness by C2D1” value in assay [2] (NMC patient 004-001, suggested by CD11b increase, patient died shortly thereafter) is on record as “not effective”. Further, in assay [2] (all 6 patients, 0.45 mg/kg SC Days 1-21 of 28-day cycle, by C1D15 vs pre-dose C1D1), the “decrease of CD11b levels relative to baseline value” is “at least 50%”. Further, the “CD11b levels at start of second cycle (C2D1)” value in assay [2] (all patients except NMC patient 004-001, after 21 days on-drug and 7 days off-drug) was “held steady”. For the same molecule, in assay [2] (non-NMC patient 002-021 (FIG. 2B)), the CD11b levels entry is “significant rise”. For the same molecule, in assay [3], the LDH levels result is “remained constant”.
